{"source": "patent US20180147206A1", "about": "“ACTIVATION OF NEURONAL STORE-OPERATED CALCIUM ENTRY PATHWAY FOR THE TREATMENT OF ALZHEIMER'S DISEASE” (The Board of Regents of the University of Texas System, priority 2015, published 2018)", "key": {"APPKIGFP and WTGFP mice": {"tested_on": "APPKIGFP and WTGFP mice", "assay": "Contextual fear conditioning test", "type": "in vivo, mouse", "conditions": "i.p. 10 mg/kg"}, "[1]": {"assay": "In vivo pharmacokinetics (plasma and brain)", "parameters": "species or system mouse", "conditions": "i.p. 10 mg/kg, female CD-1 mice", "description": "FIGS. 12A-D. NSN21778 in vitro metabolism stability, in vivo plasma pharmacokinetics, and side effect on body weight (Related to FIGS. 7A-G). (FIG. 12A) The metabolic stability of NSN21778 was evaluated in vitro after incubation with commercial liver S9 fractions in the presence of phase I (NADPH regenerating system) cofactors. Compound levels were determined by LC-MS/MS. Additionally, the stability of NSN21778 in the presence of commercial CD-1 mouse plasma was measured. (FIG. 12B) NSN21778 was dosed i.p. at 10 mg/kg to female CD-1 mice. Levels of NSN21778 in plasma and brain were evaluated by LC-MS/MS. (FIG. 12C) WTGFP, PS1KIGFP and APPKIGFP mice body weight after i.p. administrated with control solution or 10 mg/kg NSN21778 for 10 weeks. Data presented as mean±SE (n=5 mice). […]\nIn vivo pharmacokinetics. […] The supernatant was then analyzed by LC-MS/MS. […] The limit of quantitation (LOQ) was defined as the lowest concentration at which back calculation yielded a concentration within 20% of the theoretical value and above the LOD signal. […] Because the animals were not perfused prior to tissue isolation, to determine the final brain concentration of NSN21778, the amount of compound in brain due to brain vasculature was first subtracted using the calculated plasma concentrations of NSN21778 and a value of 30 μl of blood/g of brain tissue (Kwon, 2001)."}, "[2]": {"assay": "In vitro metabolism in liver S9 fractions", "type": "in vitro ADME, mouse", "conditions": "phase I cofactors (NADPH regenerating system); 2 μM", "description": "FIGS. 12A-D. NSN21778 in vitro metabolism stability, in vivo plasma pharmacokinetics, and side effect on body weight (Related to FIGS. 7A-G). (FIG. 12A) The metabolic stability of NSN21778 was evaluated in vitro after incubation with commercial liver S9 fractions in the presence of phase I (NADPH regenerating system) cofactors. Compound levels were determined by LC-MS/MS. Additionally, the stability of NSN21778 in the presence of commercial CD-1 mouse plasma was measured. (FIG. 12B) NSN21778 was dosed i.p. at 10 mg/kg to female CD-1 mice. Levels of NSN21778 in plasma and brain were evaluated by LC-MS/MS. (FIG. 12C) WTGFP, PS1KIGFP and APPKIGFP mice body weight after i.p. administrated with control solution or 10 mg/kg NSN21778 for 10 weeks. Data presented as mean±SE (n=5 mice). (FIG. 12D) Body weight gained for various treatments.\nIn vitro metabolism assays. Female ICR/CD-1 mouse S9 fractions were purchased from Celsis/In Vitro Technologies (Baltimore, Md.). 25 μl (0.5 mg) of S9 protein was added to a 15 ml glass screw cap tube. […] The supernatant was analyzed by LC-MS/MS. Stability in commercial mouse CD-1 plasma (Bioreclamation, Westbury, N.Y.) was measured in a similar fashion. […] Reactions were quenched with methanol as above and supernatants evaluated by LC-MS/MS. Compound half-life was determined by the method of substrate depletion as described (McNaney et al., 2008)."}, "[3]": {"tested_on": "other TRPCs (TRPC1-7), Orais (Orai1-3), or combination of TRPC6 and Orai2", "assay": "Fura-2 Ca2+ imaging in HEK293 cells transfected with other TRPCs, Orais or TRPC6 plus Orai2", "type": "cell-based", "conditions": "1 μM (data not shown)", "description": "To confirm the target for Hyp and NSN compounds, the inventors overexpressed TRPC6 in HEK293 cells and performed a series of Fura-2 Ca^2+ imaging experiments. […] In additional experiments, the inventors evaluated effects of 1 μM NSN compound in experiments with HEK293 cells transfected with other TRPCs (TRPC1-7), Orais (Orail-3), or combination of TRPC6 and Orai2. […] From these experiments, the inventors concluded that Hyp acts as direct activator of TRPC6 channels, but the actions of NSN compound are more complex. In further experiments, the inventors measured SOC in conditions of store depletion. To achieve this, HEK239 cells were preincubated in Ca^2+-free media containing 1 μM Tg. In these experiments, the inventors observed endogenous SOC response in EGFP-transfected cells, which was further enhanced in TRPC6-transfected cells. […] TRPC6 channels are known to be activated by DAG (Estacion et al., 2004). In spine nSOC measurements, addition of 100 μM DHPG was required to generate robust Ca^2+ responses. Thus, in the next series of experiments, the inventors evaluated effects of OAG, a synthetic and stable analog of DAG."}}}
{"smiles": "CC(=O)Nc1ccc(CCNc2ncnc3ccc(N)cc23)cc1", "note": "[NSN21778, N-{4-[2-(6-Amino-quinazolin-4-ylamino)-ethyl]-phenyl}-acetamide]", "values": [{"measurement": "contextual fear conditioning phenotype", "setting": "APPKIGFP and WTGFP mice; 6.5 month-old APPKIGFP mice", "result": "fully rescued"}, {"measurement": "contextual fear conditioning responses", "setting": "APPKIGFP and WTGFP mice; WTGFP mice, difference to control not statistically significant", "result": "somewhat impaired responses"}, {"measurement": "toxicity in injected mice", "setting": "i.p. 10 mg/kg 3 times per week, WTGFP, PS1KIGFP and APPKIGFP mice", "result": "not observed any obvious toxicity"}, {"measurement": "body weight", "setting": "i.p. 10 mg/kg, following 10 weeks treatment", "result": "some weight loss"}, {"measurement": "brain penetration", "setting": "[1]", "result": "poor"}, {"measurement": "levels in plasma", "setting": "[1]", "result": "modest levels"}, {"measurement": "metabolic stability in liver S9 fractions", "setting": "[2]", "result": "generally stable"}, {"measurement": "Ca2+ influx", "setting": "[3]", "result": "failed to induce Ca^2+ influx"}]}
